From paper PMC6680430, “Quantitative Prediction of Human Pharmacokinetics and Pharmacodynamics of CKD519, a Potent Inhibitor of Cholesteryl Ester Transfer Protein (CETP)” (Pharmaceutics, 2019)

Experiments:
[1] = animal full PK study in hamsters (NCA and PK model); type: in vivo; details: hamster; for Tmax: median (range)
Procedure: (§1) Animal PK data for analysis were collected from preclinical studies performed at ChongKunDang laboratory. All animal experiments were performed with relevant guidelines and regulations, and the protocol was approved by the Institutional Animal Care and Use Committee (IACUC) of ChongKunDang (Approval number: S-13-015). A single dose of CKD519 was administered either orally or via intravenous infusion to hamsters (intravenous dose of 0.5 mg/kg, oral dose of 3, 15, or 45 mg/kg, n = 30); rats (intravenous dose of 0.5 mg/kg, oral dose of 5, 15, or 45 mg/kg, n = 20); and monkeys (intravenous dose of 0.1 mg/kg, oral dose of 1, 5, or 30 mg/kg, n = 16). The identical solution was administered to all animal species in the fasted state. Plasma CKD519 concentration was measured before and at 0.083, 0.25, 0.5, 1, 2, 4, 8, and 24 h after administration in hamsters and rats, and before and at 0.083, 0.25, 0.5, 1, 2, 4, 6, 8, 12, 24, 48, and 72 h after administration in monkeys. Two hamsters given identical doses were sampled in a rotating manner.
(§2) The plasma samples were stored at −70 °C before the analysis and were thawed at room temperature. […] A sensitive, specific, and validated liquid chromatography coupled with a tandem mass spectrometer (HPLC-MS/MS) assay was used for the determination of CKD519 concentration in animal plasma samples. A structural analogue of CKD519 was used as the internal standard. The validated working range was from 2 ng/mL (the lower limit of quantification, LLOQ) to 20,000 ng/mL. Quality control (QC) samples were analyzed together with the study samples. Intra-day and inter-day precision and accuracy results were within the acceptance criteria based on the Ministry of Food and Drug Safety (MFDS) guidelines. An exploratory data analysis was performed through non-compartmental analysis (NCA) using the NonCompart package (developed by Bae, version 0.4.4) in R (version 3.5.1, The R Foundation, Vienna, Austria).
(§3) Using the PK data from each species, nonlinear mixed-effect modeling was conducted using NONMEM (version 7.4, Icon Development Solutions, Ellicott City, MD, USA) reflecting the clues from NCA. The first-order conditional estimation method with interaction (FOCE-I) was used whenever applicable. The adequacy of the model was checked using changes in the objective function value (OFV), visual inspection of various diagnostic plots (goodness-of-fit (GOF) plot), and methods of visual predictive check (VPC) and bootstrap were used for the diagnostics on the model stability and parameter reliability. The significance of model improvement was evaluated using a likelihood-ratio test (LRT). In the nested models, the result was considered statistically significant if the OFV decreased more than 3.84 (p-value < 0.05, degree of freedom (df) = 1) and 5.99 (p-value < 0.05, df = 2). The degree of freedom is defined as the gap of the numbers of parameters of the two subsequent models that are being compared. In the case of non-nested models, the Akaike information criteria (AIC) value was used to select the model that best described the data. R (version 3.5.1., R Foundation for Statistical Computing, Vienna, Austria) was used for data preparation, NCA, graphical analysis, model diagnostics, and statistical summaries.
(§4) Initially, a two-compartment model with first-order absorption was developed to describe the biphasic curve, and several absorption structures (e.g., zero-order with absorption lag time, Weibull-type absorption) were applied to the base model if needed. The change in absolute bioavailability (F) by dose levels was also considered. […]

[2] = animal full PK study in monkeys (NCA and PK model); type: in vivo, Cynomolgus monkey; details: monkey; for Tmax: median (range)
Procedure: as §1, §2, §3, §4

[3] = PK model, final estimate (%RSE)
[4] = intravenous 0.5 mg/kg, NCA, mean ± SD
[5] = two-compartment PK model, final estimate (%RSE)
[6] = intravenous 0.1 mg/kg, NCA, mean ± SD

COc1cc(F)c(C(C)C)cc1C1=C(CN2C(=O)O[C@H](c3cc(C(F)(F)F)cc(C(F)(F)F)c3)[C@@H]2C)CC(C)(C)CC1 [CKD519]
α (scale parameter of Weibull absorption) [1, 3]: 4.20 (4.14%) | β (shape parameter of Weibull absorption) [1, 3]: 2.62 (4.47%) | AUClast [1, 4]: 8760 ± 635 ng·h/mL | V/F * (V for intravenous) [1, 4]: 138 ± 89.9 mL | ke [1, 4]: 0.0616 ± 0.0446 h⁻¹ | t1/2 [1, 4]: 16.9 ± 14.1 h | Tmax ([1]; intravenous 0.5 mg/kg, NCA): 0.083 (0.083–0.083) h | AUClast ([1]; oral 3 mg/kg, NCA, mean ± SD): 6140 ± 471 ng·h/mL | CL/F ([1]; oral 3 mg/kg, NCA, mean ± SD): 34.7 ± 3.08 mL/h | Cmax ([1]; oral 3 mg/kg, NCA, mean ± SD): 659 ± 89.3 ng/mL | V/F ([1]; oral 3 mg/kg, NCA, mean ± SD): 1570 ± 163 mL | ke ([1]; oral 3 mg/kg, NCA, mean ± SD): 0.0223 ± 0.00294 h⁻¹ | t1/2 ([1]; oral 3 mg/kg, NCA, mean ± SD): 31.5 ± 4.41 h | Tmax ([1]; oral 3 mg/kg, NCA): 3.5 (3–4) h | AUClast ([1]; oral 15 mg/kg, NCA, mean ± SD): 18800 ± 4310 ng·h/mL | CL/F ([1]; oral 15 mg/kg, NCA, mean ± SD): 66.6 ± 20.1 mL/h | Cmax ([1]; oral 15 mg/kg, NCA, mean ± SD): 3250 ± 465 ng/mL | V/F ([1]; oral 15 mg/kg, NCA, mean ± SD): 2460 ± 162 mL | ke ([1]; oral 15 mg/kg, NCA, mean ± SD): 0.0268 ± 0.00613 h⁻¹ | t1/2 ([1]; oral 15 mg/kg, NCA, mean ± SD): 26.8 ± 5.23 h | Tmax ([1]; oral 15 mg/kg, NCA): 4 (3–4) h | AUClast ([1]; oral 45 mg/kg, NCA, mean ± SD): 26700 ± 2330 ng·h/mL | CL/F ([1]; oral 45 mg/kg, NCA, mean ± SD): 145 ± 9.52 mL/h | Cmax ([1]; oral 45 mg/kg, NCA, mean ± SD): 3160 ± 614 ng/mL | V/F ([1]; oral 45 mg/kg, NCA, mean ± SD): 4330 ± 572 mL | ke ([1]; oral 45 mg/kg, NCA, mean ± SD): 0.0338 ± 0.00311 h⁻¹ | t1/2 ([1]; oral 45 mg/kg, NCA, mean ± SD): 20.7 ± 1.76 h | Tmax ([1]; oral 45 mg/kg, NCA): 4 (3–6) h | CL [1, 5]: 0.00377 (7.40%) L/h | Q [1, 5]: 0.00617 (10.3%) L/h | Vc [1, 5]: 0.00472 (9.43%) L | Vp [1, 5]: 0.0924 (9.78%) L | α (scale parameter of Weibull absorption) [2, 3]: 5.44 (11.8%) | β (shape parameter of Weibull absorption) [2, 3]: 3.54 (6.50%) | AUClast [2, 6]: 5150 ± 1530 ng·h/mL | V/F * (V for intravenous) [2, 6]: 3500 ± 1380 mL | ke [2, 6]: 0.0105 ± 0.00836 h⁻¹ | t1/2 [2, 6]: 104 ± 80.0 h | Tmax ([2]; intravenous 0.1 mg/kg, NCA): 0.1665 (0.083–0.25) h | AUClast ([2]; oral 1 mg/kg, NCA, mean ± SD): 8940 ± 954 ng·h/mL | CL/F ([2]; oral 1 mg/kg, NCA, mean ± SD): 230 ± 64.6 mL/h | Cmax ([2]; oral 1 mg/kg, NCA, mean ± SD): 752 ± 148 ng/mL | V/F ([2]; oral 1 mg/kg, NCA, mean ± SD): 17600 ± 4000 mL | ke ([2]; oral 1 mg/kg, NCA, mean ± SD): 0.0140 ± 0.0057 h⁻¹ | t1/2 ([2]; oral 1 mg/kg, NCA, mean ± SD): 59.9 ± 35.5 h | Tmax ([2]; oral 1 mg/kg, NCA): 5.5 (5–6) h | AUClast ([2]; oral 5 mg/kg, NCA, mean ± SD): 29500 ± 4840 ng·h/mL | CL/F ([2]; oral 5 mg/kg, NCA, mean ± SD): 309 ± 77.3 mL/h | Cmax ([2]; oral 5 mg/kg, NCA, mean ± SD): 4700 ± 1100 ng/mL | V/F ([2]; oral 5 mg/kg, NCA, mean ± SD): 50500 ± 16900 mL | ke ([2]; oral 5 mg/kg, NCA, mean ± SD): 0.00707 ± 0.00412 h⁻¹ | t1/2 ([2]; oral 5 mg/kg, NCA, mean ± SD): 125 ± 64.6 h | Tmax ([2]; oral 5 mg/kg, NCA): 7 (6–8) h | AUClast ([2]; oral 30 mg/kg, NCA, mean ± SD): 79100 ± 15600 ng·h/mL | CL/F ([2]; oral 30 mg/kg, NCA, mean ± SD): 999 ± 123 mL/h | Cmax ([2]; oral 30 mg/kg, NCA, mean ± SD): 10200 ± 2390 ng/mL | V/F ([2]; oral 30 mg/kg, NCA, mean ± SD): 67800 ± 44900 mL | ke ([2]; oral 30 mg/kg, NCA, mean ± SD): 0.0194 ± 0.0104 h⁻¹ | t1/2 ([2]; oral 30 mg/kg, NCA, mean ± SD): 46.3 ± 26.8 h | Tmax ([2]; oral 30 mg/kg, NCA): 8 (8–8) h | CL [2, 5]: 0.0344 (24.0%) L/h | Q [2, 5]: 0.0895 (49.9%) L/h | Vc [2, 5]: 0.383 (74.7%) L | Vp [2, 5]: 3.40 (51.5%) L
